Measured values from patent publication US5859037A, “Sulfonylurea-glitazone combinations for diabetes” (Warner-Lambert Company, priority 1997, dated 1999).
“And” between values parts separate entries of the source, which are not always exact repeats. Equal entries are not always repeated.

Key:
Format in all cases: in vivo, patients
[1] = system: non-insulin dependent diabetes mellitus (NIDDM); assay: Patient disposition (withdrawal, completion)
From the text: This was a 12-month, double-blind, randomized, parallel-group, active-control, multicenter study design (FIG. 1). […] Patients could withdraw voluntarily at any time during the study or be withdrawn by the investigator because of significant adverse events or deterioration in health, poor compliance, pregnancy, or prolonged symptomatic hyperglycemia or persistent worsening or failure to improve glycemic control as monitored by FSG.

[2] = system: lipid parameters (markers of lipid metabolism); assay: Fasting serum lipid profile in 52-week clinical study; conditions: for LDL Cholesterol, Change From Baseline, Mean / LDL Cholesterol, Change From Baseline, Median / Total Cholesterol, Change From Baseline, Mean / Total Cholesterol, Change From Baseline, Median / Apo A1, Change From Baseline, Mean / Apo B, Change From Baseline, Mean / Free Fatty Acids, Change From Baseline, Mean / Free Fatty Acids, Change From Baseline, Median / HDL Cholesterol, Change From Baseline, Mean / HDL Cholesterol, Change From Baseline, Median / LP(a), Change From Baseline, Mean / Triglycerides, Change From Baseline, Mean / Triglycerides, Change From Baseline, Median / VLDL Cholesterol, Change From Baseline, Mean / VLDL Cholesterol, Change From Baseline, Median: ITT, Week 52; for LDL adjusted mean increase, difference from glyburide / total cholesterol adjusted mean increase, difference from glyburide: Month 12
Protocol: After an initial screening visit, patients meeting the inclusion criteria entered a 4-week baseline phase (unblinded) in which they received 12 mg micronized glyburide (6 mg BID).
Secondary efficacy parameters included markers of glycemic homeostasis (insulin and C-peptide) and markers of lipid metabolism (total cholesterol, total triglycerides, HDL, VLDL, LDL (measured), free fatty acids, Lp(a), Apo A1, and Apo B).
Efficacy analysis was performed on 2 patient populations, intent-to-treat and completers. […] Patients withdrawing from the study before Week 52 were included in the analysis using the LOCF procedure; the last measurement on treatment was substituted for the missing Week 52 measurement. The intent-to-treat patient sample was the primary sample for assessing efficacy. Completers comprised patients in the intent-to-treat sample who completed Week 52.
Summary statistics for baseline, follow-up (post-randomization), and change from baseline in secondary efficacy parameters were computed by treatment group and visit. For each patient, the baseline measurements for insulin, C-peptide, blood pressure, total cholesterol, triglycerides, LDL, HDL, VLDL, and free fatty acids were defined as the measurement at Week 0. In order to reduce variability, the baseline Apo A, Apo B, and Lp(a) levels were defined as the average of the respective measurements at Weeks -1 and 1. Similarly, the end-of-treatment Apo A, Apo B, and Lp(a) measurements were defined as the average of the respective measurements at Weeks 48 and 52. Averages from Weeks 20 and 24 were not carried forward for these special lipid parameters.
Fasting serum lipid profiles were determined at baseline and periodically through Week 52. Apo A1, Apo B, and Lp(a) were determined only at baseline, Month 6, and Month 12 as part of a special laboratory panel.

[3] = system: total insulin and C-peptide; assay: Fasting total insulin and C-peptide in 52-week clinical study; conditions: for C-Peptide, Adjusted Mean Change From Baseline (SE) / Total Insulin, Adjusted Mean Change From Baseline (SE) / C-Peptide, Adjusted Mean Difference From Glyburide / Total Insulin, Adjusted Mean Difference From Glyburide: ITT, Week 52; for C-Peptide, Adjusted Mean Difference From Glyburide / Total Insulin, Adjusted Mean Difference From Glyburide: *p ≤ 0.05
Protocol: This was a 12-month, double-blind, randomized, parallel-group, active-control, multicenter study design (FIG. 1). […] Secondary efficacy parameters included markers of glycemic homeostasis (insulin and C-peptide) and markers of lipid metabolism (total cholesterol, total triglycerides, HDL, VLDL, LDL (measured), free fatty acids, Lp(a), Apo A1, and Apo B). Efficacy analysis was performed on 2 patient populations, intent-to-treat and completers. […] Patients withdrawing from the study before Week 52 were included in the analysis using the LOCF procedure; the last measurement on treatment was substituted for the missing Week 52 measurement. The intent-to-treat patient sample was the primary sample for assessing efficacy. Completers comprised patients in the intent-to-treat sample who completed Week 52. The analysis of change from baseline to Week 52 was performed using analysis of covariance (ANCOVA). The primary model included effects due to treatment and center and baseline as covariate. Treatment-by-baseline and treatment-by-center interactions were also examined in supplemental models.

[4] = glyburide monotherapy (active control)
[5] = troglitazone 200 mg, or 200 mg/12 mg in combination
[6] = troglitazone 400 mg, or 400 mg/12 mg in combination
[7] = troglitazone 600 mg, or 600 mg/12 mg in combination
[8] = Week 52, compared with glyburide

With `COc1ccc(Cl)cc1C(=O)NCCc1ccc(S(=O)(=O)NC(=O)NC2CCCCC2)cc1` [Glyburide] the “Withdrawn, Adverse Event, Number (%) of Patients” value ([1]; glyburide monotherapy) was 6 (7.6) Number (%) of Patients, the “Withdrawn, Lack of Efficacy, Number (%) of Patients” value (“Withdrawn, Lack … (%) of Patients” below) ([1]; glyburide monotherapy) was 20 (25.3) Number (%) of Patients and the “withdrawal for lack of efficacy” value ([1]; glyburide monotherapy) was “Twenty-five”. For the same compound, the “LDL Cholesterol, Change From Baseline, Mean” value ([2]; Glynase (active control)) was 3.49 mg/dL, the “LDL Cholesterol, Change From Baseline, Median” value ([2]; Glynase (active control)) was 4.00 mg/dL and the “Total Cholesterol, Change From Baseline, Mean” value ([2]; Glynase (active control)) was 6.17 mg/dL. The “Total Cholesterol, Change From Baseline, Median” value ([2]; Glynase (active control)) was 6.50 mg/dL, the “Apo A1, Change From Baseline, Mean” value [2, 4] was -1.1 mg/dL and the “Apo B, Change From Baseline, Mean” value [2, 4] was 2.9 mg/dL. The “Free Fatty Acids, Change From Baseline, Mean” value [2, 4] was -0.05 mEq/L, the “Free Fatty Acids, Change From Baseline, Median” value [2, 4] was 0.03 mEq/L and the “HDL Cholesterol, Change From Baseline, Mean” value [2, 4] was -0.15 mg/dL. For the same compound, the “HDL Cholesterol, Change From Baseline, Median” value [2, 4] was -1.00 mg/dL, the “LP(a), Change From Baseline, Mean” value [2, 4] was 1.4 mg/dL and the “Triglycerides, Change From Baseline, Mean” value [2, 4] was 14.24 mg/dL. The “Triglycerides, Change From Baseline, Median” value [2, 4] was 8.00 mg/dL, the “VLDL Cholesterol, Change From Baseline, Mean” value [2, 4] was -2.78 mg/dL and the “VLDL Cholesterol, Change From Baseline, Median” value [2, 4] was -1.00 mg/dL. For the same compound, the “Triglycerides, Change From Baseline, Mean” value ([2]; glyburide monotherapy (active control), listed as glyburide) was 14 mg/dL, the “C-Peptide, Adjusted Mean Change From Baseline (SE)” value [3, 4] was -0.67 (0.07) ng/mL and the “Total Insulin, Adjusted Mean Change From Baseline (SE)” value [3, 4] was -1.45 (1.39) μIU/mL.

In the case of `Cc1c(C)c2c(c(C)c1O)CCC(C)(COc1ccc(CC3SC(=O)NC3=O)cc1)O2` (centres unmarked) [Troglitazone], the “withdrawal for lack of efficacy” value ([1]; 200 mg troglitazone) is reported as ~60% and 55%, the “Withdrawn, Adverse Event, Number (%) of Patients” value [1, 5] is reported as 6 (7.7) Number (%) of Patients and the “Withdrawn, Lack … (%) of Patients” value [1, 5] is reported as 43 (55.1) Number (%) of Patients. For the same compound, the “Withdrawn, Adverse Event, Number (%) of Patients” value [1, 6] was 7 (8.6) Number (%) of Patients, the “Withdrawn, Lack … (%) of Patients” value [1, 6] was 32 (39.5) Number (%) of Patients and the “Withdrawn, Adverse Event, Number (%) of Patients” value [1, 7] was 6 (7.7) Number (%) of Patients. For the same compound, the “Withdrawn, Lack … (%) of Patients” value [1, 7] was 34 (43.6) Number (%) of Patients, the “HDL adjusted mean change, difference from glyburide” value ([2]; 600 mg troglitazone monotherapy, p<0.05) was 4.9 mg/dL and the “Apo A1, Change From Baseline, Mean” value [2, 5] was 1.9 mg/dL. For the same compound, the “Apo B, Change From Baseline, Mean” value [2, 5] was 6.4 mg/dL, the “Free Fatty Acids, Change From Baseline, Mean” value [2, 5] was -0.09 mEq/L and the “Free Fatty Acids, Change From Baseline, Median” value [2, 5] was -0.04 mEq/L. The “HDL Cholesterol, Change From Baseline, Mean” value [2, 5] was 0.86 mg/dL, the “HDL Cholesterol, Change From Baseline, Median” value [2, 5] was 1.00 mg/dL and the “LDL Cholesterol, Change From Baseline, Mean” value [2, 5] was 17.78 mg/dL. For the same compound, the “LDL Cholesterol, Change From Baseline, Median” value [2, 5] was 20.50 mg/dL, the “LP(a), Change From Baseline, Mean” value [2, 5] was 8.8 mg/dL and the “Total Cholesterol, Change From Baseline, Mean” value [2, 5] was 19.96 mg/dL. For the same compound, the “Total Cholesterol, Change From Baseline, Median” value [2, 5] was 21.00 mg/dL, the “Triglycerides, Change From Baseline, Mean” value [2, 5] was -35.77 mg/dL and the “Triglycerides, Change From Baseline, Median” value [2, 5] was 3.50 mg/dL. The “VLDL Cholesterol, Change From Baseline, Mean” value [2, 5] was 3.54 mg/dL, the “VLDL Cholesterol, Change From Baseline, Median” value [2, 5] was 3.50 mg/dL and the “Apo A1, Change From Baseline, Mean” value [2, 6] was -1.5 mg/dL. For the same compound, the “Apo B, Change From Baseline, Mean” value [2, 6] was 3.4 mg/dL, the “Free Fatty Acids, Change From Baseline, Mean” value [2, 6] was -0.17 mEq/L and the “Free Fatty Acids, Change From Baseline, Median” value [2, 6] was -0.12 mEq/L. The “HDL Cholesterol, Change From Baseline, Mean” value [2, 6] was 2.99 mg/dL, the “HDL Cholesterol, Change From Baseline, Median” value [2, 6] was 3.00 mg/dL and the “LDL Cholesterol, Change From Baseline, Mean” value [2, 6] was 12.09 mg/dL. The “LDL Cholesterol, Change From Baseline, Median” value [2, 6] was 11.00 mg/dL, the “LP(a), Change From Baseline, Mean” value [2, 6] was 10.0 mg/dL and the “Total Cholesterol, Change From Baseline, Mean” value [2, 6] was 24.78 mg/dL. The “Total Cholesterol, Change From Baseline, Median” value [2, 6] was 20.00 mg/dL, the “Triglycerides, Change From Baseline, Mean” value [2, 6] was -3.86 mg/dL and the “Triglycerides, Change From Baseline, Median” value [2, 6] was -2.00 mg/dL. The “VLDL Cholesterol, Change From Baseline, Mean” value [2, 6] was 8.48 mg/dL, the “VLDL Cholesterol, Change From Baseline, Median” value [2, 6] was 3.00 mg/dL and the “Apo A1, Change From Baseline, Mean” value [2, 7] was -1.9 mg/dL. For the same compound, the “Apo B, Change From Baseline, Mean” value [2, 7] was 3.1 mg/dL, the “Free Fatty Acids, Change From Baseline, Mean” value [2, 7] was -0.19 mEq/L and the “Free Fatty Acids, Change From Baseline, Median” value [2, 7] was -0.11 mEq/L. The “HDL Cholesterol, Change From Baseline, Mean” value [2, 7] was 4.53 mg/dL, the “HDL Cholesterol, Change From Baseline, Median” value [2, 7] was 3.00 mg/dL and the “LDL Cholesterol, Change From Baseline, Mean” value [2, 7] was 16.21 mg/dL. The “LDL Cholesterol, Change From Baseline, Median” value [2, 7] was 15.00 mg/dL, the “LP(a), Change From Baseline, Mean” value [2, 7] was 9.1 mg/dL and the “Total Cholesterol, Change From Baseline, Mean” value [2, 7] was 25.88 mg/dL. The “Total Cholesterol, Change From Baseline, Median” value [2, 7] was 20.50 mg/dL, the “Triglycerides, Change From Baseline, Mean” value [2, 7] was -9.59 mg/dL and the “Triglycerides, Change From Baseline, Median” value [2, 7] was -24.00 mg/dL. For the same compound, the “VLDL Cholesterol, Change From Baseline, Mean” value [2, 7] was -0.36 mg/dL, the “VLDL Cholesterol, Change From Baseline, Median” value [2, 7] was -3.00 mg/dL and the “LDL adjusted mean increase, difference from glyburide” value ([2]; 200 mg, p<0.05) was 23 mg/dL. The “total cholesterol adjusted mean increase, difference from glyburide” value ([2]; 200 mg, p<0.05) was 25 mg/dL, the “total cholesterol adjusted mean increase, difference from glyburide” value ([2]; 400 mg, p<0.05) was 26 mg/dL and the “LDL adjusted mean increase, difference from glyburide” value ([2]; 600 mg, p<0.05) was 19 mg/dL. For the same compound, the “total cholesterol adjusted mean increase, difference from glyburide” value ([2]; 600 mg, p<0.05) was 28 mg/dL, the “atherogenic risk / lipid profile (result in words)” value ([2]; mono- or combination therapy) was “do not negatively impact atherogenic risk” and the “C-Peptide, Adjusted Mean Change From Baseline (SE)” value [3, 5] was -0.96 (0.07) ng/mL. The “Total Insulin, Adjusted Mean Change From Baseline (SE)” value [3, 5] was -8.41 (1.39) μIU/mL, the “C-Peptide, Adjusted Mean Difference From Glyburide” value [3, 5] was 0.29 ng/mL and the “Total Insulin, Adjusted Mean Difference From Glyburide” value [3, 5] was -6.96 μIU/mL. The “C-Peptide, Adjusted Mean Change From Baseline (SE)” value [3, 6] was -0.78 (0.07) ng/mL, the “Total Insulin, Adjusted Mean Change From Baseline (SE)” value [3, 6] was -5.90 (1.40) μIU/mL and the “C-Peptide, Adjusted Mean Difference From Glyburide” value [3, 6] was -0.11 ng/mL. For the same compound, the “Total Insulin, Adjusted Mean Difference From Glyburide” value [3, 6] was -4.44 μIU/mL, the “C-Peptide, Adjusted Mean Change From Baseline (SE)” value [3, 7] was -1.01 (0.08) ng/mL and the “Total Insulin, Adjusted Mean Change From Baseline (SE)” value [3, 7] was -11.53 (1.42) μIU/mL. The “C-Peptide, Adjusted Mean Difference From Glyburide” value [3, 7] was 0.34 ng/mL, the “Total Insulin, Adjusted Mean Difference From Glyburide” value [3, 7] was -10.07 μIU/mL and the “C-peptide (result in words)” value [3, 8] was “Significant (p≤0.05) decreases in C-peptide were observed for troglitazone monotherapy only (200 and 600 mg troglitazone)”. The “total insulin (result in words)” value [3, 8] was “significant (p≤0.05) decrease in total insulin compared with glyburide” and the “total insulin, completers (result in words)” value ([3]; completers, 400 and 600 mg troglitazone, p<0.05 vs glyburide) was “decreases in total insulin that were significantly different from glyburide (p<0.05)”.
